Experimental data from article PMC6017736, “Indole-3-Carbonitriles as DYRK1A Inhibitors by Fragment-Based Drug Design” (Molecules : A Journal of Synthetic Chemistry and Natural …, 2018).
Blank lines part the entries; values can stand above or below the molecule they belong to.

Experiments:
[1] = Cytotoxicity, cell viability by tetrazolium dye assay (XTT assay); type: cell-based; details: human, HeLa cells, 1 µM, read-out: Viability of treated HeLa cells relative to control cells
Protocol: To evaluate the applicability of the 2-substituted indole-3-carbonitrile compounds in cell culture experiments, we assessed toxicity of 6f, 6h, 6s and 13b on HeLa cells by viability assays (Table 4).
The inhibitors were added to the cultured cells from stock solutions in DMSO to the desired final concentration. For cytotoxicity assays, HeLa cells were grown in 96-well plates (20,000–30,000 cells per well) and incubated with the test compounds for 3 days before cell viability was evaluated with the help of a tetrazolium dye assay (XTT assay, AppliChem GmbH, Darmstadt, Germany).

CLK2 = CLK2 (Mus musculus, UniProt O35491); assay: Protein kinase assay ([γ-33P]-ATP, RS peptide substrate), CLK2; type: biochemical; details: for IC50: 15 µM ATP
Protocol: (§1) DYRK1A, 1B, 2, 3 (human, recombinant, expressed in E. coli as GST fusion proteins) and CLK1, 2, 3, and 4 (mouse, recombinant, expressed in E. coli as GST fusion proteins) were assayed as described for GSK-3 in Buffer A (supplemented extemporaneously with 0.15 mg BSA/mL + 1 mM DTT) with 1 µg of RS peptide ([…]) as a substrate.

DYRK1B = DYRK1B (Homo sapiens, UniProt Q9Y463); assay: Protein kinase assay ([γ-33P]-ATP, RS peptide substrate), DYRK1B; type: biochemical; details: for IC50: 15 µM ATP, read-out: IC50 DYRK 1B
Protocol: as §1

DYRK1A [2] = molecular target: T1, DYRK1A (Homo sapiens, UniProt Q13627); assay: Ligand-lipophilicity efficiency (pIC50 minus calculated logP); details: Table S2
Protocol: All new compounds were evaluated based on their physicochemical properties regarding Lipinski’s rule of five and the ligand-lipophilicity efficiency (LLE). Both concepts are used to assess the druglikeness of drug development candidates. […] LLE is calculated from pIC50 minus calculated logP [46].

DYRK1A [3] = molecular target: T1, DYRK1A; assay: Protein kinase assay ([γ-33P]-ATP, RS peptide substrate), DYRK1A; type: biochemical; details: for IC50: 15 µM ATP, read-out: IC50 DYRK 1A; for remaining activity at 10 µM: 10 µM compound, compared to controls, read-out: Residual Activity at 10 µM DYRK 1A
DYRK3 = molecular target: T2, DYRK3 (Homo sapiens, UniProt O43781); assay: Protein kinase assay ([γ-33P]-ATP, RS peptide substrate), DYRK3; type: biochemical; details: for inhibition at 10 µM: read-out: Inhibition at 10 µM DYRK3 (class symbol); for IC50: 15 µM ATP
T2 sequence (O43781 1-588): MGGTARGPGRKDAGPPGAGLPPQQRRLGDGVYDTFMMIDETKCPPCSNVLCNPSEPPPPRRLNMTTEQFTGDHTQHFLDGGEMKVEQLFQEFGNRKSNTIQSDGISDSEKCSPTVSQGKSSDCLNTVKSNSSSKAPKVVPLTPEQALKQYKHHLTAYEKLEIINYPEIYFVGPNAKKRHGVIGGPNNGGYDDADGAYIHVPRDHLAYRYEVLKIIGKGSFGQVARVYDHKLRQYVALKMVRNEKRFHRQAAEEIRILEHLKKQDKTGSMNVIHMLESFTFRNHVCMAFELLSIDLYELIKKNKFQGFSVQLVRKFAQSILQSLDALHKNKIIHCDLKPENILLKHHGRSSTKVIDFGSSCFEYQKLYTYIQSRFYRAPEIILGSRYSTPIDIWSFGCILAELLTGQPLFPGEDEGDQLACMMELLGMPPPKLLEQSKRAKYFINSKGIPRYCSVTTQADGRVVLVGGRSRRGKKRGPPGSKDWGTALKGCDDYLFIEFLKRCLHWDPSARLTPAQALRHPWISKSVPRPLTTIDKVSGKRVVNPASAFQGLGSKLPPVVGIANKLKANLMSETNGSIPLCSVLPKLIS
Protocol: as §1

CLK3 = CLK3 (Mus musculus, UniProt O35492); assay: Protein kinase assay ([γ-33P]-ATP, RS peptide substrate), CLK3; type: biochemical; details: for inhibition at 10 µM: read-out: Inhibition at 10 µM CLK3 (class symbol); for IC50: 15 µM ATP
Protocol: as §1

DYRK2 = molecular target: T3, DYRK2 (Homo sapiens, UniProt Q92630); assay: Protein kinase assay ([γ-33P]-ATP, RS peptide substrate), DYRK2; type: biochemical; details: for inhibition at 10 µM: read-out: Inhibition at 10 µM DYRK2 (class symbol); for IC50: 15 µM ATP
T3 sequence (Q92630 1-601): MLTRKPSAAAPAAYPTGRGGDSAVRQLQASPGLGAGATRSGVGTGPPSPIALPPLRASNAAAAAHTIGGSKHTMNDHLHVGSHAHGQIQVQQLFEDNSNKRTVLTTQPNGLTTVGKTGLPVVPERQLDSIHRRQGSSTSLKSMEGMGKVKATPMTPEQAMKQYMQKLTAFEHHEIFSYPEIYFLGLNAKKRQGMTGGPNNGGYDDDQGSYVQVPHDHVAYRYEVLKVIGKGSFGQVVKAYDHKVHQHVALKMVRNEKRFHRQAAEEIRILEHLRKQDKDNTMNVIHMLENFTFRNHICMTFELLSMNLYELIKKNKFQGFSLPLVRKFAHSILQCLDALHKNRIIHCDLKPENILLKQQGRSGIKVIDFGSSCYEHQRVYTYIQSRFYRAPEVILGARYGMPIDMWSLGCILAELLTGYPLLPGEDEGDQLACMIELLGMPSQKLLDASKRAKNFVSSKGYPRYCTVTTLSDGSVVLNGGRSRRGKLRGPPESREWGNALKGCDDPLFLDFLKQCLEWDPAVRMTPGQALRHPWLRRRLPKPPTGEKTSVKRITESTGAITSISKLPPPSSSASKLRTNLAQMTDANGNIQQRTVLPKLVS
Protocol: as §1

GSK-3 = assay: Protein kinase assay ([γ-33P]-ATP, GS-1 substrate), GSK-3; details: for IC50: read-out: IC50 GSK3, 15 µM ATP
CLK4 = CLK4 (Mus musculus, UniProt O35493); assay: Protein kinase assay ([γ-33P]-ATP, RS peptide substrate), CLK4; type: biochemical; details: for IC50: 15 µM ATP
Protocol: as §1

CLK1 = CLK1 (Mus musculus, UniProt P22518); assay: Protein kinase assay ([γ-33P]-ATP, RS peptide substrate), CLK1; type: biochemical; details: for IC50: 15 µM ATP; for remaining activity at 10 µM: 10 µM compound, compared to controls, read-out: Residual Activity at 10 µM CLK1
Protocol: as §1

Chain of CLK1 (P22518 whole entry): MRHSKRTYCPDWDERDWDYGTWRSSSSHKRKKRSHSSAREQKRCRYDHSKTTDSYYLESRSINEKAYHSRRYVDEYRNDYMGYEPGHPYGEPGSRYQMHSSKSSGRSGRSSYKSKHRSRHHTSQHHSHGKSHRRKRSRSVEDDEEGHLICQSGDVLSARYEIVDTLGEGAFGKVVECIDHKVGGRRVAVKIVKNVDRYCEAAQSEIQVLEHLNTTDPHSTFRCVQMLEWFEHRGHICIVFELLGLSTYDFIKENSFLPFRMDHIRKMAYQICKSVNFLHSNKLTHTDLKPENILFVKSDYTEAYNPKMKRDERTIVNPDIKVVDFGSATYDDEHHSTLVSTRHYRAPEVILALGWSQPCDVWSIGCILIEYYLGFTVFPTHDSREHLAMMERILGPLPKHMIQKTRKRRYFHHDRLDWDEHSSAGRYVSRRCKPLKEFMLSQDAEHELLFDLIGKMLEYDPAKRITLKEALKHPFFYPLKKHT
Chain of CLK3 (O35492 whole entry): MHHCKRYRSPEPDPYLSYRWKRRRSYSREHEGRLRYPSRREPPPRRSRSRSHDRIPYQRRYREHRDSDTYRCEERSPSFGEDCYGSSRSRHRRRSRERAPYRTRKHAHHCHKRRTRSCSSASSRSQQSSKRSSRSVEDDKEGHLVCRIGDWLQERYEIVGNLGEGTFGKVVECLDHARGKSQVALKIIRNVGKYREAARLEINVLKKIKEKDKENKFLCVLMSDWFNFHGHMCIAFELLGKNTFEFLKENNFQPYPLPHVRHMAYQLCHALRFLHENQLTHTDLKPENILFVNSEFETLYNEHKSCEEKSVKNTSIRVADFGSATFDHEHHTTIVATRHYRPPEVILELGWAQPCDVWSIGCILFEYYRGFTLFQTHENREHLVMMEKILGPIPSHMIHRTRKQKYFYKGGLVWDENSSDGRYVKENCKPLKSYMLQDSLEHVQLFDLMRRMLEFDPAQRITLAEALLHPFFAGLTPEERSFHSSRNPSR
Chain of CLK2 (O35491 whole entry, the tested form may be a part): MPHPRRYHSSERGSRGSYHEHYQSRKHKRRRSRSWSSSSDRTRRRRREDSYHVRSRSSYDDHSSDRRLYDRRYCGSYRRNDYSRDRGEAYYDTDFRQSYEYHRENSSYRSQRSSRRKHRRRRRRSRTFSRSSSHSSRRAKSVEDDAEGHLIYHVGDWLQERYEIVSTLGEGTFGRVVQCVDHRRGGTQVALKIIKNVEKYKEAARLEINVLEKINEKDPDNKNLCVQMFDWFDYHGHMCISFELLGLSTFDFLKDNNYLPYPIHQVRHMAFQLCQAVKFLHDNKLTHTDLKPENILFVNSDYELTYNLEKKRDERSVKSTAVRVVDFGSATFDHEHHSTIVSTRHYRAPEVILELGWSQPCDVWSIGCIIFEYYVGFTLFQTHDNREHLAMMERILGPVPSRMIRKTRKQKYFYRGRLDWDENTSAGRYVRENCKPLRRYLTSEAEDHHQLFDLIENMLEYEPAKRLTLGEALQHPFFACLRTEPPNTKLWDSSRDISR
Chain of CLK4 (O35493 whole entry): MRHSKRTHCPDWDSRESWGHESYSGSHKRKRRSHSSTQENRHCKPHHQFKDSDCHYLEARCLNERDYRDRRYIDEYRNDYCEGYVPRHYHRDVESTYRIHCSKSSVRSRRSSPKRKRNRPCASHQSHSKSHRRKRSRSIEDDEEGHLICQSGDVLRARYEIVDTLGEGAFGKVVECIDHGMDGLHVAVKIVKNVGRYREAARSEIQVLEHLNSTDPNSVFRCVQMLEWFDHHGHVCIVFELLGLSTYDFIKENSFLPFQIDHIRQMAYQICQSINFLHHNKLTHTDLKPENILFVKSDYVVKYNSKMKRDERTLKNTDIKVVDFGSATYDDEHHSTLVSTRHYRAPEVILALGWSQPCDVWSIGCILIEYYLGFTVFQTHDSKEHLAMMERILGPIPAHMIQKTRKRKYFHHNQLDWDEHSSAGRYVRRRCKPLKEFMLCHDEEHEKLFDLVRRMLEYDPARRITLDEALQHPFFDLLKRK
Chain of DYRK1B (Q9Y463 whole entry): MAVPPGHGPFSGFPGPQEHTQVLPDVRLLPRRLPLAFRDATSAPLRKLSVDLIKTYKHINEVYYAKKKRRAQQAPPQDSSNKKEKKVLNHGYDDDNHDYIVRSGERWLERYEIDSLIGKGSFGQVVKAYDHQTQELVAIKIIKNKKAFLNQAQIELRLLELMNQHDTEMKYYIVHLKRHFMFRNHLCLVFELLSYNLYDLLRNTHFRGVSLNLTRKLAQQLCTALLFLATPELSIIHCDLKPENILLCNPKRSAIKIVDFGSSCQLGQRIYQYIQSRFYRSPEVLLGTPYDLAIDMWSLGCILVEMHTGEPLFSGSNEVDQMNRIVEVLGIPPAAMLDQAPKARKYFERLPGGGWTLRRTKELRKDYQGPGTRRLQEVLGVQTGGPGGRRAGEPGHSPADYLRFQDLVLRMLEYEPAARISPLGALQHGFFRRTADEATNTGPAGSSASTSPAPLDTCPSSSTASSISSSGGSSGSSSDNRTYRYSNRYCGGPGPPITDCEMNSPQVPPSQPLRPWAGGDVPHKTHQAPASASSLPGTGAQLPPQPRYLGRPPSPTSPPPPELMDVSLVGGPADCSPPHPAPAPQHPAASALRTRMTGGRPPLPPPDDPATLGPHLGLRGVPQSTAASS

Compound: CN[C@@H]1C[C@H]2O[C@@](C)([C@@H]1OC)n1c3ccccc3c3c4c(c5c6ccccc6n2c5c31)C(=O)NC4 [Staurosporine, reference compound]
viability at 3 days, 1 µM [1]: 20%

Compound: Cn1c(-c2ccccc2)c(C#N)c2cccc(Br)c21 [Compound 13e, 7-Bromo-1-methyl-2-phenyl-1H-indole-3-carbonitrile]
inhibition at 10 µM (CLK2; 10 µM compound, read-out: Inhibition at 10 µM CLK2 (class symbol)): < 20%
IC50 (DYRK1B): 10000 nM
LLE (DYRK1A [2]): 1.15
IC50 (DYRK1A [3]): 2300 nM
inhibition at 10 µM (DYRK3; 10 µM compound): < 20%
inhibition at 10 µM (CLK3; 10 µM compound): < 20%
inhibition at 10 µM (DYRK2; 10 µM compound): < 20%
Inhibition at 10 µM GSK3 (class symbol) (GSK-3; 10 µM compound): - (-: less than 20% inhibition at 10 µM, IC50 was not determined)
IC50 (CLK4): 1000 nM
IC50 (CLK1): > 10000 nM

Compound: CC(C)c1[nH]c2c(I)cccc2c1C#N [Compound 6q, 7-Iodo-2-isopropyl-1H-indole-3-carbonitrile]
IC50 (CLK2): 700 nM
IC50 (DYRK1B): 530 nM
LLE (DYRK1A [2]): 2.61
IC50 (DYRK1A [3]): 280 nM
IC50 (DYRK3): > 10000 nM
IC50 (CLK3): > 10000 nM
IC50 (DYRK2): > 10000 nM
IC50 (GSK-3): 1300 nM
IC50 (CLK4): 100 nM
IC50 (CLK1): 100 nM

Compound: Cn1cc(C#N)c2cccc(Br)c21 [Compound 13d, 7-Bromo-1-methyl-1H-indole-3-carbonitrile]
IC50 (CLK2): > 10000 nM
IC50 (DYRK1B): > 10000 nM
LLE (DYRK1A [2]): 2.80
IC50 (DYRK1A [3]): 1900 nM
IC50 (DYRK3): > 10000 nM
IC50 (CLK3): > 10000 nM
IC50 (DYRK2): > 10000 nM
IC50 (GSK-3): > 10000 nM
IC50 (CLK4): > 10000 nM
IC50 (CLK1): 3330 nM

Compound: COc1ccc(-c2[nH]c3c(Cl)cccc3c2C#N)cc1 [Compound 6j, 7-Chloro-2-(4-methoxyphenyl)-1H-indole-3-carbonitrile]
remaining activity at 10 µM (DYRK1A [3]): 60%
Residual Activity at 10 µM GSK3 (GSK-3; 10 µM compound, compared to controls): 118%
remaining activity at 10 µM (CLK1): 47%

remaining activity at 10 µM (CLK2; 10 µM compound, compared to controls, read-out: Residual Activity at 10 µM CLK2): 92%
remaining activity at 10 µM (DYRK1B; 10 µM compound, compared to controls, read-out: Residual Activity at 10 µM DYRK 1B): 79%
remaining activity at 10 µM (DYRK1A [3]): 42%
remaining activity at 10 µM (DYRK3; 10 µM compound, compared to controls, read-out: Residual Activity at 10 µM DYRK3): 101%
remaining activity at 10 µM (CLK3; 10 µM compound, compared to controls, read-out: Residual Activity at 10 µM CLK3): 130%
remaining activity at 10 µM (DYRK2; 10 µM compound, compared to controls, read-out: Residual Activity at 10 µM DYRK2): 116%
remaining activity at 10 µM (CLK4; 10 µM compound, compared to controls, read-out: Residual Activity at 10 µM CLK4): 36%
remaining activity at 10 µM (CLK1): 55%
Compound: N#Cc1c(-c2ccc(Cl)cc2)[nH]c2c(I)cccc12 [Compound 6m, 7-Iodo-2-(4-chlorophenyl)-1H-indole-3-carbonitrile]

Compound: N#Cc1c(-c2ccccc2)[nH]c2ccccc12 [Compound 6d, 2-Phenyl-1H-indole-3-carbonitrile]
IC50 (CLK2): > 10000 nM
IC50 (DYRK1B): 6000 nM
LLE (DYRK1A [2]): 2.90
IC50 (DYRK1A [3]): 400 nM
inhibition at 10 µM (DYRK3; 10 µM compound): < 20%
inhibition at 10 µM (CLK3; 10 µM compound): < 20%
inhibition at 10 µM (DYRK2; 10 µM compound): < 20%
Inhibition at 10 µM GSK3 (class symbol) (GSK-3; 10 µM compound): - (-: less than 20% inhibition at 10 µM, IC50 was not determined)
IC50 (CLK4): 2000 nM
IC50 (CLK1): 800 nM
